pIC50: −log10 of the molar value. Read-outs that look alike come from different tables or passages of the source.
Columns and labels:
[1] = system: H241: dengue virus serotype 4; assay: Dendritic Cells Infection Assay (viral RNA by real time PCR); format: cell-based; settings: Dendritic cell, human primary immature monocyte derived dendritic cells, MOI 2, 24 h, dengue RNA relative to 18S rRNA
Protocol: Cryopreserved human immature monocyte derived Dendritic Cells (iDC) from individual donors were obtained from Stemcell Technologies (CAT# PB-DC001F). iDC were counted and incubated at a concentration of 15,000 cells/well (96 well plate) in RPMI 1640 media containing 10% (v/v) fetal bovine serum (FBS), 1% (v/v) penicillin/streptomycin (Invitrogen™) for 48 h at 37° C. in a 90% humidified, 5% CO2 atmosphere prior to the start of the experiment.
In a 96 well flat-bottom plate, 15000 iDC from individual donors were infected with dengue virus at a multiplicity of infection (MOI) of 2 in a volume of 50 μl for 2 h. After Infection iDCs were washed and cultured in complete RPMI media in the presence of serially diluted compounds. Each virus/drug combination was tested either in duplicate or triplicate (Depending on the availability of iDC from individual donors). Plates were incubated for 24 h at 37° C. in a 90% humidified, 5% CO2 atmosphere. After 24 h cells were washed and cellular RNA were isolated. Viral RNA and endogenous 18S rRNA control (Applied Bio Systems) was quantified by a real time PCR assay. The viability of mock-infected and infected iDC were monitored at described time points using a CellTiter Glo® (promega) assay according to manufacturer's recommendation.
Cellular RNA was isolated by PerfectPure™ RNA 96 cell kit (5 PRIME) according to manufacturer's recommendation. Transcriptor First Strand cDNA Synthesis Kit (Roche) was used to generate cDNA using random hexamer primers. […] First ΔCt was calculated by subtracting the 18S rRNA CT value from the dengue RNA CT value. ΔCts from duplicate taqman assay were averaged. […] Relative quantification was calculated using the following formula. Relative quantification=2^−averageΔΔCT. […]

dengue [2] = settings: mouse model; cited from earlier work
dengue [3] = settings: by inhibiting the dengue 2′-O-methyltransferase NS5 domain; cited from earlier work
dengue [4] = settings: cited from earlier work

Compound	pIC50 [1]	protection against dengue (dengue [2])	activity against dengue in tissue culture (dengue [3])	adverse effects (dengue [4]; mouse model or rhesus monkey model, text does not say which)	protection against dengue (dengue [4]; rhesus monkey model)
C[C@H](NP(=O)(OC[C@@]1(N=[N+]=[N-])O[C@@H](n2cnc3c(N)ncnc32)[C@H](O)[C@@H]1O)Oc1ccccc1)C(=O)OCc1ccccc1 (stereo partly drawn) [Compound I-2, (S)-2-{[(2R,3S,4R,5R)-5-(6-Amino-purin-9-yl)-2-azido-3,4-dihydroxy-tetrahydro-furan-2-ylmethoxy]-phenoxy-phosphorylamino}-propionic acid benzyl ester]	5.72				
[N-]=[N+]=N[C@]1(COP(=O)(N[C@@H](Cc2ccccc2)C(=O)OCc2ccccc2)Oc2cccc3ccccc23)O[C@@H](n2ccc(=O)[nH]c2=O)[C@H](O)[C@@H]1O (stereo partly drawn) [Compound I-9, (S)-2-[[(2R,3S,4R,5R)-2-Azido-5-(2,4-dioxo-3,4-dihydro-2H-pyrimidin-1-yl)-3,4-dihydroxy-tetrahydro-furan-2-ylmethoxy]-(naphthalen-1-yloxy)-phosphorylamino]-3-phenyl-propionic acid benzyl ester]	4.80				
CCOC(=O)[C@H](Cc1ccccc1)NP(=O)(OC[C@@]1(N=[N+]=[N-])O[C@@H](n2ccc(=O)[nH]c2=O)[C@H](O)[C@@H]1O)Oc1cccc2ccccc12 (stereo partly drawn) [Compound I-10, (S)-2-[[(2R,3S,4R,5R)-2-Azido-5-(2,4-dioxo-3,4-dihydro-2H-pyrimidin-1-yl)-3,4-dihydroxy-tetrahydro-furan-2-ylmethoxy]-(naphthalen-1-yloxy)-phosphorylamino]-3-phenyl-propionic acid ethyl ester]	4.82				
NC(=O)c1ncn([C@@H]2O[C@H](CO)[C@@H](O)[C@H]2O)n1 [Ribavirin]		did not show protection	works against dengue in tissue culture	induced anemia and thrombocytosis	did not show protection
